The target in one test is T1, MAT2A (Homo sapiens, UniProt P31153).
T1 construct: purchased BPS Bioscience (USA) 71401
Kind of test: MAT2A inhibitory activity, colorimetric phosphate detection (PiColorLock) enzyme assay. The class given is biochemical. The note with it: Test Condition 1 or 2 (not stated which per compound); absorbance at 630 nm. On the procedure:
In vitro assay: Methionine and adenosine triphosphate (ATP) are converted into S-adenosylmethionine (SAM) and inorganic phosphate (pi) via the catalytic action of methionine adenosyltransferase 2A (MAT2A). The produced pi is detected by the PiColorLock™ Phosphate Detection Reagent, which is a colorimetric assay, and the activity of MAT2A can be evaluated according to the amount of pi generated during the enzyme reaction. Each compound was evaluated under Test Condition 1 or 2 as described below.
• Concentration of MAT2A inhibitor: maximum concentration of 50 µM, 5-fold dilution (7 groups in total) • MAT2A concentration: 12 ng/µL • ATP and Met concentration: 100 µM, 80 µM
• Concentration of MAT2A inhibitor: maximum concentration of 1 µM, 3-fold dilution (7 groups in total) • MAT2A concentration: 4 ng/µL • ATP and Met concentration: 300 µM, 150 µM • Reagents: Methionine (catalog number M5308) and ATP (catalog number A2383) were purchased from Sigma-Aldrich (USA). MAT2A (catalog number 71401) was purchased from BPS Bioscience (USA), and PiColorLock™ Phosphate Detection Reagent (catalog number 303-0030) was purchased from Novus (USA).
Assay buffer composition: 50 mM Tris-HCl pH 8.0, 50 mM KCI, 15 mM MgCl2, 0.3 mM EDTA, 0.005 % (w/v) BSA
Experimental procedure: Each compound was diluted 5-fold or 3-fold based on the maximum concentration (5 mM or 1 mM or 0.1 mM) using DMSO. The diluted compounds were diluted 20-fold using assay buffer, and then mixed at a volume ratio of 1:2 with MAT2A (30 ng/µL or 10 ng/µL) diluted with assay buffer and treated for 30 minutes at room temperature. The negative control group is a group untreated with both the MAT2A enzyme and the compound according to an embodiment of the present application, and the positive control group is a group treated only with the MAT2A enzyme and untreated with the compound according to an embodiment of the present application.
In each well of a 384-well plate, 30 µL of the mixed solution and 20 µL of a 1:1 mixed solution of ATP (0.5 mM or 1.5 mM) and Met (0.4 mM or 0.75 mM) were mixed and then treated for 1 hour at room temperature. After the enzyme reaction, 13 µL of a 100:1 mixed solution of PiColorLockTM and Accelerator was treated in each well and reacted for 5 minutes at room temperature. After treating 5 µL of Stabilizer in each well and reacting for 25 minutes at room temperature, the absorbance at 630 nm was measured using SpectraMax M4 (Molecular Devices, USA) to calculate the IC50 value of the compound.
Analysis method: The enzyme activity (%) of each experimental group was calculated as {(average O.D. of compound-treated group - average O.D. of negative control group)/(average O.D. of positive control group - average O.D. of negative control group)} * 100. After preparing a dose-response curve (4-parameter) using the enzyme activity according to the treatment concentration of each compound in GraphPad Prism 9, the 50 % of enzyme inhibitory activity value (IC50) was calculated through non-linear regression analysis. The IC50 results measured for the MAT2A activity inhibitory ability of the compounds according to an embodiment of the present application are shown in Table 2 (+++: more than 1 to 100 nM, ++: more than 100 to 1,000 nM, +: more than 1,000 to 10,000 nM, -: more than 10,000 nM).

The subject of test [1] is HCT116 (MTAP del) cell line. Kind of test: Cell proliferation inhibition in MTAP-deficient cancer cells, WST-1 assay. The class given is cell-based. The note with it: maximum concentration 10 µM, read-out: HCT116 MTAP^-/- (IC50, cell proliferation inhibited by 50%). Here is the method:
(§1) The HCT116 (MTAP del) cell line, which is a colorectal cancer cell line with deletion of MTAP gene, was treated with a compound according to an embodiment of the present application as a MAT2A inhibitor, and after culturing for 120 hours, the change in the number of cells was measured with a WST-1 assay reagent. The WST-1 assay is an assay that measures the number of cells by measuring the generation of a chromogenic substance called formazan from tetrazolium salts by intracellular mitochondrial dehydrogenase. In addition, as a control group, a wild-type colorectal cancer HCT116 (MTAP WT) cell line containing the MTAP gene was used to perform the experiment in the same manner as the experimental group.
(§2) Cell lines and reagents: HCT116 (MTAP WT (catalog number HD PAR-034), MTAP del (catalog number HD R02-033)) cell lines were purchased from Horizon Discovery (USA), and RPMI1640 medium (catalog number 22400-093), FBS (Fetal Bovine serum, catalog number 16000044), and Penicillin/Streptomycin (catalog number 15140-122) were purchased from GIBCO (USA). WST-1 (catalog number EZ-BULK150) was purchased from Dogen (Korea).
(§3) Experimental procedure: HCT116 (MTAP WT, MTAP del) cell lines were dispensed into a 96-well plate at a concentration of 1,000 cells/well in RPMI1640 culture medium containing 10% FBS and 1% Penicillin/Streptomycin, and allowed to attach for 24 hours. When the cells were attached to the plate, the drug was diluted 4-fold from a maximum concentration of 10 µM and treated on the cells. After 120 hours of drug treatment, 20 µL of WST-1 solution was treated for 2 hours, and absorbance at 450 nm was measured using SpectraMax M4 (Molecular Devices). Data analysis was calculated by taking the DMSO control group value as 100%. For the IC50 value, the concentration at which cell proliferation is inhibited by 50% was calculated through interpolation using a 4-parameter fit of the dose-response curve using the GraphPad Prism 8.4.3 program. The cancer cell proliferation inhibitory ability and selectivity in MTAP-deficient cancer cells of the compounds according to an embodiment of the present application are described in Table 3 (+++: 1 to 100 nM, ++: more than 100 to 1,000 nM, +: more than 1 to 10 µM, -: more than 10 µM).
On the technique in general: Tetrazolium dyes change colour on reduction, which living cells bring about.

Test [2] relates to HCT116 (MTAP WT) cell line. Kind of test: Cell proliferation inhibition in wild-type control cells, WST-1 assay. The note with it: maximum concentration 10 µM, read-out: HCT116 WT (IC50, cell proliferation inhibited by 50%). The class given is cell-based. On the procedure: as §1, §2, §3
Setting [3] is: Homo sapiens, HCT-116, 120 h, 120 hours of drug treatment.
Setting [4] is: Homo sapiens, HCT-116, 120 hours of drug treatment.

Data on 18 compounds can be found in patent publication EP4759814A1, “TRICYCLIC COMPOUND AND USE THEREOF AS MAT2A INHIBITOR” (SK Biopharmaceuticals Co., Ltd., priority 2023, dated 2025).

Each structure is given as a SMILES string. Like-named read-outs stand apart in the source and are kept apart here.

T1 sequence (P31153 whole entry): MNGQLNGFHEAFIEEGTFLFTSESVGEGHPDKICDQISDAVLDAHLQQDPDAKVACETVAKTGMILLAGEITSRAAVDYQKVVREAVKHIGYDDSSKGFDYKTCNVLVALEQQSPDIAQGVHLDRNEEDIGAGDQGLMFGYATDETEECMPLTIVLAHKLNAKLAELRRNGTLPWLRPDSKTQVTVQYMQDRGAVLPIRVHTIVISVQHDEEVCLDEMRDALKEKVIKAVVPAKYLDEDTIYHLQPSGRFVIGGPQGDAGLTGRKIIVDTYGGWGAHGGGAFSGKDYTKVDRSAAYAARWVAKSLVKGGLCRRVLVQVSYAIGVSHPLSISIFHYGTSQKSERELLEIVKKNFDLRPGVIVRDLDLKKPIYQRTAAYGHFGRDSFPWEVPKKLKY

As to `Cc1ccccc1-n1c(=O)c2nccn2c2ccc(Cl)cc21` (atropisomer, axis not shown; (Ra)) [Example 20, (Ra)-7-chloro-5-(o-tolyl)imidazo[1,2-a]quinoxalin-4(5H)-one], the IC50 (against MAT2A; in test [1] (120 hours of drug treatment); in test [2] (120 hours of drug treatment)) was greater than 10 µM throughout.

For `Cc1ccccc1-n1c(=O)c2nccn2c2ccc(Cl)cc21` (atropisomer, axis not shown; (Sa)) [Example 21, (Sa)-7-chloro-5-(o-tolyl)imidazo[1,2-a]quinoxalin-4(5H)-one], the IC50 against MAT2A was 0.001 to 0.1 µM; in test [1] (120 hours of drug treatment), 0.001 to 0.1 µM; in test [2] (120 hours of drug treatment), greater than 10 µM.

As for `Cc1ncccc1-n1c(=O)c2nccn2c2cc(Cl)c(Br)cc21` (atropisomer, axis not shown; (Sa)) [Example 81, (Sa)-7-bromo-8-chloro-5-(2-methylpyridin-3-yl)imidazo[1,2-a]quinoxalin-4(5H)-one], the IC50 in test [1] (setting [3]) was 0.001 to 0.1 µM; in test [2] (120 hours of drug treatment), 1 to 10 µM.

Consider `Cc1cc2c(cc1C(F)(F)F)n(-c1cccnc1C)c(=O)c1nccn12` (atropisomer, axis not shown; (Sa)) [Example 95, (Sa)-8-methyl-5-(2-methylpyridin-3-yl)-7-(trifluoromethyl)imidazo[1,2-a]quinoxalin-4(5H)-one], for which the IC50 in test [1] (setting [3]) was 0.001 to 0.1 µM; in test [2] (120 hours of drug treatment), greater than 10 µM.

`Cc1ncccc1-n1c(=O)c2nccn2c2cc(Cl)c(C(F)(F)F)cc21` (atropisomer, axis not shown; (Sa)) [Example 98, (Sa)-8-chloro-5-(2-methylpyridin-3-yl)-7-(trifluoromethyl)imidazo[1,2-a]quinoxalin4(5H)-one]: the IC50 in test [1] (setting [3]) is 0.001 to 0.1 µM; in test [2] (120 hours of drug treatment) it was greater than 10 µM.

On to `CCc1ncccc1-n1c(=O)c2nccn2c2cc(Cl)c(C(F)(F)F)cc21` (atropisomer, axis not shown; (Sa)) [Example 112, (Sa)-8-chloro-5-(2-ethylpyridin-3-yl)-7-(trifluoromethyl)imidazo[1,2-a]quinoxalin4(5H)-one], for which, in test [1] (setting [3]), the IC50 is greater than 10 µM.

Turning to `Cc1ccccc1-n1c(=O)c2nccn2c2ccc(Cl)cc21` [Example 1, 7-chloro-5-(o-tolyl)imidazo[1,2-a]quinoxalin-4(5H)-one], the IC50 was 0.1 to 1 µM against MAT2A, 0.1 to 1 µM in test [1] (setting [4]) and greater than 10 µM in test [2] (setting [4]).

For `O=c1c2nccn2c2ccc(Cl)cc2n1-c1ccccc1` [Example 2, 7-chloro-5-phenylimidazo[1,2-a]quinoxalin-4(5H)-one], the results for the IC50 (at MAT2A; in test [1] (setting [4]); in test [2] (setting [4])) were 0.1 to 1 µM, 1 to 10 µM and greater than 10 µM, respectively.

On to `CCc1ccccc1-n1c(=O)c2nccn2c2ccc(Cl)cc21` [Example 3, 7-chloro-5-(2-ethylphenyl)imidazo[1,2-a]quinoxalin-4(5H)-one], for which the IC50 at MAT2A was 0.1 to 1 µM; in test [1] (setting [4]) it was 0.1 to 1 µM; in test [2] (setting [4]), greater than 10 µM.

With `Cc1cccc(-n2c(=O)c3nccn3c3ccc(Cl)cc32)c1C` [Example 4, 7-chloro-5-(2,3-dimethylphenyl)imidazo[1,2-a]quinoxalin-4(5H)-one], the IC50 against MAT2A is 0.1 to 1 µM; in test [1] (setting [4]), 0.1 to 1 µM; in test [2] (setting [4]), greater than 10 µM.

`CC(C)c1ccccc1-n1c(=O)c2nccn2c2ccc(Cl)cc21` [Example 5, 7-chloro-5-(2-isopropylphenyl)imidazo[1,2-a]quinoxalin-4(5H)-one]: the IC50 is 0.1 to 1 µM at MAT2A, 1 to 10 µM in test [1] (setting [4]) and greater than 10 µM in test [2] (setting [4]).

In the case of `Cc1c(F)cccc1-n1c(=O)c2nccn2c2ccc(Cl)cc21` [Example 6, 7-chloro-5-(3-fluoro-2-methylphenyl)imidazo[1,2-a]quinoxalin-4(5H)-one], the IC50 is 0.1 to 1 µM at MAT2A, 0.1 to 1 µM in test [1] (setting [4]) and 1 to 10 µM in test [2] (setting [4]).

Take `O=c1c2nccn2c2ccc(Cl)cc2n1-c1ccccc1C(F)(F)F` [Example 7, 7-chloro-5-(2-(trifluoromethyl)phenyl)imidazo[1,2-a]quinoxalin-4(5H)-one]: the IC50 at MAT2A was 0.1 to 1 µM; in test [1] (setting [4]) it was 1 to 10 µM; in test [2] (setting [4]), greater than 10 µM.

Consider `Cc1cc(F)ccc1-n1c(=O)c2nccn2c2ccc(Cl)cc21` [Example 8, 7-chloro-5-(4-fluoro-2-methylphenyl)imidazo[1,2-a]quinoxalin-4(5H)-one], for which the results for the IC50 (against MAT2A; in test [1] (setting [4]); in test [2] (setting [4])) were 1 to 10 µM, greater than 10 µM and greater than 10 µM, respectively.

With `Cc1ccc(F)cc1-n1c(=O)c2nccn2c2ccc(Cl)cc21` [Example 9, 7-chloro-5-(5-fluoro-2-methylphenyl)imidazo[1,2-a]quinoxalin-4(5H)-one], the IC50 (against MAT2A; in test [1] (setting [4]); in test [2] (setting [4])) was greater than 10 µM each time.

Turning to `Cc1c(F)cccc1-n1c(=O)c2nccn2c2ccc(C(F)(F)F)cc21` [Example 10, 5-(3-fluoro-2-methylphenyl)-7-(trifluoromethyl)imidazo[1,2-a]quinoxalin-4(5H)-one], the IC50 against MAT2A was in the range of 0.001 to 0.1 µM; in test [1] (setting [4]) it was 0.001 to 0.1 µM; in test [2] (setting [4]) it was 0.1 to 1 µM.

As for `Cc1c(Cl)cccc1-n1c(=O)c2nccn2c2ccc(Cl)cc21` [Example 11, 7-chloro-5-(3-chloro-2-methylphenyl)imidazo[1,2-a]quinoxalin-4(5H)-one], the IC50 is 0.1 to 1 µM on MAT2A, 0.001 to 0.1 µM in test [1] (setting [4]) and 0.1 to 1 µM in test [2] (setting [4]).

On MAT2A, `CCOc1cc(C(F)(F)F)cc2c1n1ccnc1c(=O)n2-c1cccnc1C` [Example 118, 9-ethoxy-5-(2-methylpyridin-3-yl)-7-(trifluoromethyl)imidazo[1,2-a]quinoxalin-4(5H)-one] had an IC50 of 0.001 to 0.1 µM.
